Data reported in patent publication US20150366839A1, “Schisantherin A for the treatment of neurodegenerative diseases” (priority 2014, published 2015).

Experiments:
[1] = system: intracellular NO in SH-SY5Y cells; assay: 6-OHDA-induced NO production (DAF-FM diacetate); assay type: cell-based, Human
Description: Intracellular NO was evaluated by using the fluorescent probe 4-amino-5-methylamino-2′,7′-difluorofluoresecin diacetate (DAF-FM diacetate), which is cell-permeant and diffuses passively across cellular membranes. Once inside the cells, DAF-FM diacetate is deacetylated by intracellular esterases to DAF-FM. DAF-FM is essentially non-fluorescent until DAF-FM reacts with NO. Thus, it can be used to quantify intracellular NO production. The cells were seeded in 96-well, black bottom-clear plates. […] The cells were then washed twice in PBS and the fluorescence was evaluated in a multi-label counter at an excitation wavelength of 495 nm and an emission wavelength of 515 nm. The increase in fluorescence for each treatment was calculated as the relative fluorescence of each treatment compared with the untreated control cells.
(§1) Augmented NO production subsequent to iNOS induction appears to play an important role in the initial phase of 6-OHDA-induced neuro-damage models in vitro and in vivo (Singh, Das et al. 2005; Lin, Uang et al. 2007; Shih, Chen et al. 2011). […] Expression of the total iNOS proteins were determined by Western blot analysis. […] Results of FIGS. 4A-C are expressed as a percentage of relative fluorescent intensity (RFI) of the Control group. ###P<0.005 versus control group; *p<0.05, **p<0.01 and *** p<0.005 versus 6-OHDA group.

[2] = Blood brain barrier experiment; assay type: in vivo, rat
Description: To investigate the capability of permeation of blood brain barrier (BBB). On the experimental day, heart perfusion was chosen to clear blood interference at brain under 10% chloralic hydras (i.p. 250 mg/kg) anesthesia, and brain was collected at scheduled time after dosing.
Brain tissues were thawed and homogenized in precooled saline (at the 1:2 g:ml ratio). 250 μl of homogenized solution was added 200 μl acetonitrile and 150 μl methanol. After vortexing for 20 s, centrifugations at 12,000 rpm for 10 min were for the separation. The denatured protein was separated and the supernatant was collected and filtered through a 0.22 μm membrane. A 20 μl volume of the supernatant was injected into HPLC for analysis.
Quantitative analysis of SchiA was completed on an Agilent series 1260 HPLC apparatus (Agilent Technologies, Santa Clara, Calif., USA) equipped with a vacuum degasser, a quaternary pump, a manual sampler and an ultraviolet detector. RP Phenonenex C-18 column (250 mm×4.6 mm, 5 μm) was used to separate at 35° C. with a mobile phase of water and methanol (83:17, v/v). The flow rate was 1 ml/min. The monitoring wavelength of SchiA was 230 nm.
And then non-compartmental model of DAS 2.0 program was chosen to calculate the major pharmacokinetic parameters.
The treatment of brain disorders drugs should pass through the blood-brain barrier (BBB) to regulate certain receptors in the CNS for producing effect. Thus the inventors examined whether SchiA could pass BBB. […] Generally, drug distribution was depends on the free drug concentration in plasma which could affect the supply to the target disuse. […] P-gp, functioning as an ATP-dependent drug pump, efficiently extrudes intracellular drugs out of cells, especially anticancer drugs. After oral administrated to plasma, lots of SchiA were combined at intestines and hardly entered into brain by passing through the barrier of P-gp. But after an i.v. bolus injection, SchiA which liked an impact was directly entered into systemic circulation and P-gp was saturated with SchiA speedily and SchiA couldn't stay at brain as long as plasma despite the concentration was considerable. Therefore, it is rationalized the SchiA passed through BBB caused by i.v. and it has been hypothesized that P-gp is the major determinant of SchiA pharmacokinetics.

zebrafish larvae = conditions: 2.5-10 μM with 10 μM MPTP, 4 days, 10 min session
Description: The wild type zebrafish was used for this study. Embryos were collected after natural spawning, staged according to standard criteria and raised synchronously at 28.5° C. in embryo medium (13.7 mM NaCl, 540 μM KCl, pH 7.4, 25 μM Na2HPO4, 44 μM KH2PO4, 300 μM CaCl2, 100 μM MgSO4, 420 μM NaHCO3, pH 7.4). Zebrafish were staged by days post fertilization (dpf) according to criteria. […] Drugs (i.e. the five lignans) were dissolved in DMSO and directly added into the zebrafish embryo medium to treat fish. […] An equal concentration of DMSO in embryo medium was used as vehicle control in each experiment.
Then the total distance of movement was defined as the distance (in cm) was recorded using a 96-well plate filled with 200 μL embryo medium in a 10 minutes long session. Zebrafish were allowed to accommodate to the environment of the system for 1 hour before the start of the data acquisition.
In this study, Zebrafish larvae at 3 dpf were exposed to 2.5-10 μM SchiA with or without 10 μM MPTP for another 4 days, and zebrafish larval co-treated with MPTP and 150 μM L-dopa or 3 μM NOM (Nomifensine) were used as positive controls. After treatment, zebrafish were collected to perform locomotion behavior test using Viewpoint Zebrabox system and total distances travelled in 10 min were calculated. […]

iNOS = iNOS expression, Western blot; assay type: cell-based, Human
Description: After treatment, SH-SY5Y cells were washed three times with PBS and then lysis with RIPA lysis buffer containing 1% PMSF and 1% Protease Inhibitor Cocktail and incubated for 30 min on ice. Cell lysates were centrifuged at 12,500 g for 20 min at 4° C. The supernatant was separated and the amount of protein was determined using the BCA protein assay kit (Thermo Scientific Pierce, USA). Protein samples (30 μg) were separated by SDS-PAGE (10% (w/v)) polyacrylamide gel and then transferred to a polyvinylidene difluoride (PVDF) membrane (Bio-Rad, Hercules, Calif.). Subsequently, the membrane was blocked with 5% (v/v) non-fat milk in PBST (PBS containing 0.1% Tween 20) for 1 h at room temperature. The blots were incubated overnight at 4° C. with primary antibodies. […] Quantitative assessment of protein bands was done with Gel Doc™ XRS equipped with Quantity One software.
as §1, with “6-OHDA group. […]” for “6-OHDA group.”

[3] = 60 μM 12 h, then 400 μM 6-OHDA 2 h

SMILES: COc1cc2c(c(OC)c1OC)-c1c(cc3c(c1OC)OCO3)C[C@H](C)[C@](C)(O)[C@H]2OC(=O)c1ccccc1 [SchiA, Schisantherin A]
- 6-OHDA-induced increase in DAF-FM fluorescence (NO) [1, 3]: inhibited such increase in DAF-FM fluorescence
- DAF-FM fluorescence intensity, compound alone ([1]; 60 μM, without 6-OHDA): no effect
- concentration in brain as % of concentration in plasma ([2]; half an hour post-i.v. bolus injection): 54.5%
- ability to pass the BBB in vivo ([2]; i.v.): able to traverse the BBB in vivo
- detection in brain samples ([2]; i.v., up to 6 h): wasn't detected
- detection in brain ([2]; oral administration): wasn't detected
- MPTP-induced reduction of total distance of movement (zebrafish larvae): inhibited MPTP-induced reduction of total distance of movement in zebrafish in a dose dependent manner
- 6-OHDA-induced iNOS expression (iNOS; [3]): reduced the expression of iNOS induced by 6-OHDA significantly
- iNOS expression, compound alone (iNOS; 60 μM, without 6-OHDA): no obvious influence
